Consider seven molecules from patent US20190008797A1, “ESTROGEN RECEPTOR ALPHA COLIGANDS, AND METHODS OF USE THEREOF” (priority 2016, published 2019).

One experiment addresses ERα (Homo sapiens, UniProt P03372). Nature of the experiment: NKG2E-TK-Luc transfection assay, U2OS cells cotransfected with ERα. In kind it is cell-based. Further details: expressed in transfected cells; host or cells: U2OS. The conditions noted are these: 5 μM 2′,3′,4′-THC + 10 or 100 nM estrogen, 24 hours. Here is the method:
FIG. 7a-7e. […] (C) U2OS cells cotransfected with GRE-TK-Luc and human (h) GR and treated with 10 nM of dexamethasone (Dex) and 5 μM of 2′, 3′, 4′-THC alone or in combination for 24 hours. (D) U2OS cells cotransfected with human tyrosine aminotransferase (TATS)-luciferase reporter gene and hAR and treated with 10 nM of dihydrotestosterone (DHT) and 5 μM of 2′, 3′, 4′-THC alone or in combination for 24 hours. (E) U2OS cells cotransfected with TAT3-luciferase reporter gene and hPR-B and treated with 10 nM of progesterone (Prog) and 5 μM of 2′, 3′, 4′-THC alone or in combination for 24 hours. After transfection, luciferase activities were measured as described in the Methods. RLU is relative light units and the data shown are mean±SEM.
(§1) (FIGS. 6a, 6b) Gene expression of (FIG. 6a) KRT73 and (FIG. 6b) NKG2E in U2OS-ERα cells treated with 10 nM estradiol, 5 μM 2′, 3′, 4′-THC, 1μM ICI alone or in combination for 24 hours. […] Error bars are ±SEM. […] After transfection, luciferase activities were measured as described in the Methods. RLU is relative light units and the data shown are mean ±SEM. (FIG. 6c). […] After transfection, luciferase activities were measured as described in the Methods. RLU is relative light units and the data shown are mean ±SEM (FIG. 6d).

The test system of experiment [1] is U2OS-ERα cells. Nature of the experiment: NKG2E mRNA real-time PCR in U2OS-ERα cells. In kind it is cell-based, human. The following applies: for NKG2E gene expression, compound alone: 10 nM E2, 5 μM 2′,3′,4′-THC, 1 μM tamoxifen or raloxifene. Here is the method:
(§2) (FIG. 1a) Chemical structure of 2′, 3′, 4′-THC. (FIG. 1b) U2OS cells cotransfected with ERE tk-luciferase and ERα (left panel) or ERβ (right panel). After transfection the cells were treated for 24 hours with 10 nM estradiol and 5 μM 2′, 3′, 4′-THC alone or in combination. Cells were lysed and luciferase activity was measured. RLU is relative light units. Error bars are the Mean±SEM. **P≤0.01. […] The total cellular RNA was extracted and real-time PCR for KRT19 mRNA was performed as described in Materials and Methods. […] Error bars are ±SEM. *P≤0.05, **** P≤0.0001.
as §1
For orientation: Quantitative PCR measures a nucleic acid by following its amplification.

In experiment [2] the test system is U2OS-ERα cells. The experiment can be described thus: Real-time PCR of unique genes FGR, KCNK6, KRT73 in U2OS-ERα cells. In kind it is cell-based, human. Here is the method: Expression was assessed by up regulation or down regulation of 3-fold or more and a P-value≤0.05. […] Error bars are ±SEM.
as §1

The next experiment concerns MCF-7 cells. The experiment can be described thus: MCF-7 cell proliferation (cell counting). The following applies: 5 days.
For experiment [3], the system named is U2OS-ERα cells. Nature of the experiment: Microarray gene regulation in U2OS-ERα cells. In kind it is cell-based, human. Here is the method:
Total cellular RNA was isolated utilizing the Aurum™ RNA isolation kit (Bio-Rad, Hercules, Calif.) per the manufacturer's directions. RNA isolates were first quantified by nanodrop®, and then qualitatively evaluated by the Bio-Rad Experion™ system per the manufacturer's instructions. Biotin-labeled cRNA samples were prepared using 750 ng of total RNA. Biotin-labeled samples were evaluated by both 260/280 absorbance spectrophotometry and capillary electrophoresis. Labeled cRNA samples were hybridized overnight against Human genome HG U133A-2.0 GeneChip® arrays, (Affymetrix, Santa Clara, Calif.). All treatments were done in triplicate with the same batch of microarrays. The data was analyzed as previously described (Saunier, E. F., et al. Estrogenic plant extracts reverse weight gain and fat accumulation without causing mammary gland or uterine proliferation. PloS one 6, e28333 (2011)).
FIGS. 2a-2f2′, 3′, 4′-THC behaves as a unique coagonist on gene expression in U2OS-ERα cells. […] Expression was assessed by up regulation or down regulation of 3-fold or more and a P-value≤0.05. […] Error bars are ±SEM.

The subject of experiment [4] is U2OS-ERα cells. The experiment can be described thus: KRT19 mRNA real-time PCR in U2OS-ERα cells. The conditions noted are these: for KRT19 gene expression, compound alone: 10 nM E2, 5 μM 2′,3′,4′-THC, 1 μM tamoxifen or raloxifene, 24 hours; for effect on E2-induced KRT19 expression: in combination with 10 nM E2, 24 hours. In kind it is cell-based, human. Here is the method: as §2
FIGS. 3a-3d. […] Error bars are ±SEM.

The subject of another experiment is mouse uterus. Nature of the experiment: Ovariectomized (OVX) mouse model, osmotic pump. In kind it is in vivo. The conditions noted are these: OVX mice, 4 weeks. Here is the method:
8 week old C57b1/6J female ovariectomized or intact mice were purchased from Jackson Laboratories, Sacramento, Calif. Mice were housed and maintained according to OLAC standard procedures in the NAF facility at UC Berkeley, Calif. All mice were fed a soy-free chow diet 2916.15 (Harlan Laboratories, Livermore, Calif.) starting one week before osmotic pump implantation or 2′, 3′, 4′-THC injection. Pumps Model 2006 were purchased from Alzet and filled with vehicle, 1 μg […], 2 mg of 2′, 3′, 4′-THC or the combination of 2′, 3′, 4′-THC and estradiol. All drugs were dissolved in sterile vehicle consisting of 50% dimethylsulfoxide (DMSO), 25% ETOH and 25% deionized water. Pumps were handled with sterile gloves and filled using a 27 gauge filling tube and 1 mL syringe. All pumps were placed in 1X PBS in 15 mL sterile conical tubes and incubated overnight at 37° . Pumps were surgically implanted into 8 week old C57b1/6J female ovariectomized mice (Jackson Laboratory, Sacramento, Calif.) posterior to the scapula and left for a duration of 4 weeks. Intact mice were injected intraperitoneal with 2′, 3′, 4′-THC every day for 3 weeks. Mice were weighed once a week for the duration of the experiment. The intraperitoneal gonadal fat was removed and weighed. Uterine tissue was collected, fluid drained and then weighed.
Tissues were dissected and immediately frozen in liquid nitrogen. Before RNA isolation, tissues were homogenized in PureZOL™ using the MP FastPrep™-24 for 40 seconds.
Uterine Tissue Slide Preparation Uterine tissue was removed and trimmed of excess adipose tissue. Tissues were fixed in formalin for 24 hours then transferred to 50% ETOH for 1 hour followed by 70% ethanol (ETOH) for another hour. After fixation tissues were sent to Histopathology Reference Laboratory, Hercules Calif. where they were paraffin embedded, sectioned and stained with hematoxylin and eosin for morphological exam
FIGS. 5a-5h. 2′, 3′, 4′-THC acts as antagonist in the mouse uterus. Uterine weights of intact (FIG. 5a) and OVX (FIG. 5b) mice. […] (FIG. 5h) Total body weight of OVX mice after 4 week treatment. Error bars are ±SEM.

The mark [5] stands for this setting: 1 μM ICI, 10 nM estradiol, 5 μM 2′,3′,4′-THC, 24 hours.

ERα, sequence (P03372 whole entry): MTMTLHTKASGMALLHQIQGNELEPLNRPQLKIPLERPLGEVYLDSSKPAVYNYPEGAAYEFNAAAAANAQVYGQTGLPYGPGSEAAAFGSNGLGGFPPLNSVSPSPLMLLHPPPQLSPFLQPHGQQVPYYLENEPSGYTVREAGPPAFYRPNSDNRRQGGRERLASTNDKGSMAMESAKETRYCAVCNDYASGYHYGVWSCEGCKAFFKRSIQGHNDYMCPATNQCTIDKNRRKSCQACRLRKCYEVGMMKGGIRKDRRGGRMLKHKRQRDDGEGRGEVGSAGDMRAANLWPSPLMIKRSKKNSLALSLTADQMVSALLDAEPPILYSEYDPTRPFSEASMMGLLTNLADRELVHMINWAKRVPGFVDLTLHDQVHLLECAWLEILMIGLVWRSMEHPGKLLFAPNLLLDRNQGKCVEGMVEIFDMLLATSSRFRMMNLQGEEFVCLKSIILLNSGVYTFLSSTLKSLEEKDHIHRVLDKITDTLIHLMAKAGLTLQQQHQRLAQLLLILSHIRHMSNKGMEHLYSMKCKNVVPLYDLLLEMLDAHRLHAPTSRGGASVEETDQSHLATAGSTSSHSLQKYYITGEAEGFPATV

For `C[C@]12CC[C@@H]3c4cc(O)c(O)cc4CC[C@H]3[C@@H]1CC[C@@H]2O` [2-hydroxyestradiol, reference compound], on ERα, the “synergistic action of 2′,3′,4′-THC on NKG2E-TK-Luc with the named estrogen” value (“synergistic action of 2′,3′,4′-THC” below) was “synergistic action”.

For the molecule `COc1cc2c(cc1O)CC[C@@H]1[C@@H]2CC[C@]2(C)[C@@H](O)CC[C@@H]12` [2-methoxyestradiol, reference compound], the “synergistic action of 2′,3′,4′-THC” value on ERα is given as “smaller synergistic activation”.

On to `C[C@]12CC[C@@H]3c4ccc(O)c(O)c4CC[C@H]3[C@@H]1CC[C@@H]2O` [4-hydroxyestradiol, reference compound], for which, at ERα, the “synergistic action of 2′,3′,4′-THC” value is on record as “synergistic action”.

For `C[C@]12CC[C@@H]3c4ccc(O)cc4CC[C@H]3[C@@H]1CC[C@@H]2O` [E2, 17β-estradiol, reference compound], the “NKG2E gene expression, compound alone” value with U2OS-ERα cells [1] (24 hours) is “activated”. Besides, in the experiment with U2OS-ERα cells [2] (E2 alone, 24 hrs), the “E2 dose at which FGR activation was observed” value amounted to 10 nM, the KCNK6 regulation entry is “not regulated” and the KRT73 regulation entry is listed as “not regulated”. The “MCF-7 cell proliferation, compound alone” value in the experiment on MCF-7 cells was “increased”. For the same molecule, in the experiment on U2OS-ERα cells [3] (10 nM E2), the “genes uniquely regulated by E2 alone” value turned out to be 222 genes. The “number of genes regulated, compound alone” value in the experiment with U2OS-ERα cells [3] (10 nM E2 or 5 μM 2′,3′,4′-THC, 3-fold or more, P≤0.05) is 756 genes. In the experiment on U2OS-ERα cells [4], the “KRT19 gene expression, compound alone” value is reported as “induced”. Moreover, in the experiment on mouse uterus, the “H & E staining of uterus, compound alone” value was “increased the number of cells lining the duct”. For the same molecule, the “amount of gonadal adipose tissue fat” value in the experiment with mouse uterus (E2 alone) is “decreased”. Moreover, the “uterine size / uterine weight, compound alone” value in the experiment on mouse uterus (osmotic pump) is on record as “large increase”.

As for `C[C@]12CC[C@@H]3c4ccc(O)cc4C[C@@H](CCCCCCCCC[S+]([O-])CCCC(F)(F)C(F)(F)F)[C@H]3[C@@H]1CC[C@@H]2O` (some centres unmarked) [ICI 182,780], the “effect on induction of NKG2E by the 2′,3′,4′-THC/E2 combination” value with U2OS-ERα cells [1] (setting [5]) is given as “blocked”. Also, in the experiment on U2OS-ERα cells [2] (setting [5]), the “effect on induction of KRT73 by the 2′,3′,4′-THC/E2 combination” value is recorded as “blocked”.

Turning to `O=C(c1ccc(OCCN2CCCCC2)cc1)c1c(-c2ccc(O)cc2)sc2cc(O)ccc12` [raloxifene], in the experiment on U2OS-ERα cells [1] (24 hours), the “NKG2E gene expression, compound alone” value is listed as “activated”. For the same molecule, the “effect on E2-induced NKG2E gene expression” value in the experiment with U2OS-ERα cells [1] (in combination with 10 nM E2, 24 hours) is on record as “antagonized”. In addition, in the experiment on U2OS-ERα cells [4], the “KRT19 gene expression, compound alone” value was “no effect” and the “effect on E2-induced KRT19 expression” value was “blocked”.

Turning to `CC/C(=C(\c1ccccc1)c1ccc(OCCN(C)C)cc1)c1ccccc1` [tamoxifen], the “NKG2E gene expression, compound alone” value in the experiment with U2OS-ERα cells [1] (24 hours) is “activated”. In addition, in the experiment with U2OS-ERα cells [4], the “KRT19 gene expression, compound alone” value is reported as “no effect” and the “effect on E2-induced KRT19 expression” value is “blocked”.
